In the supplement of paper PMC11061612:

Columns and labels:
[1] = tested on: TC-YIK (Other Solid Carcinomas); assay: combination Emax (second highest fraction inhibited in the dose matrix, 72 h); higher = more inhibition; extreme values may be limits of the assay
Summary of the method: (§1)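 Cell lines in DMEM/F12 or RPMI with 10% FBS were plated in 1536-well plates, held 24 hours at 37°C, 5% CO2, then given two-drug dose matrices for 72 hours (DMSO typically 0.2%). Viability was read by CellTiter-Glo 2.0 luminescence and scaled as inhibition from 0 (vehicle wells) to 1 (blank wells). Combination Emax is the second-highest inhibition in the matrix; Bliss excess is observed combination effect minus expected EA + EB − EA·EB, EA and EB being single-agent effects.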

[2] = tested on: JHH-6 (Hepatocellular Carcinoma); assay: as above
Summary of the method: as §1

[3] = tested on: 647-V (Bladder Carcinoma); assay: as above
Summary of the method: as §1

[4] = tested on: MES-SA (Other Solid Carcinomas); assay: as above
Summary of the method: as §1

[5] = tested on: SLVL (B-Cell Non-Hodgkin's Lymphoma); assay: as above
Summary of the method: as §1

[6] = tested on: FU-OV-1 (Ovarian Carcinoma); assay: as above
Summary of the method: as §1

[7] = tested on: RCC10RGB (Kidney Carcinoma); assay: as above
Summary of the method: as §1

[8] = tested on: DOK (Oral Cavity Carcinoma); assay: as above
Summary of the method: as §1

[9] = tested on: GDM-1 (Acute Myeloid Leukemia); assay: as above
Summary of the method: as §1

[10] = tested on: SKN-3 (Head and Neck Carcinoma); assay: as above
Summary of the method: as §1

[11] = tested on: SK-UT-1 (Other Solid Carcinomas); assay: as above
Summary of the method: as §1

[12] = tested on: NOMO-1 (Acute Myeloid Leukemia); assay: as above
Summary of the method: as §1

[13] = tested on: MEG-01 (Chronic Myelogenous Leukemia); assay: as above
Summary of the method: as §1

[14] = tested on: SK-LMS-1 (Other Solid Carcinomas); assay: as above
Summary of the method: as §1

[15] = tested on: TC-YIK (Other Solid Carcinomas); assay: Bliss excess, mean over the matrix (fraction); higher = more synergy
Summary of the method: as §1

[16] = tested on: FU-OV-1 (Ovarian Carcinoma); assay: as above
Summary of the method: as §1
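For Bliss excess, mean over the matrix in this document: after 72 h of two-drug dosing.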

Cn1cnc2c(F)c(Nc3ccc(Br)cc3Cl)c(C(=O)NOCCO)cc21 [Selumetinib] + C[C@@H]1COCCN1C2=NC(=NC(=C2)C3(CC3)[S@](=N)(=O)C)C4=C5C=CNC5=NC=C4 [AZD6738] (first compound max 10 µM, 7x7, partner max 10 µM)
combination Emax [1]: 0.865 | combination Emax [2]: 0.445 | combination Emax [3]: 0.757 | combination Emax [4]: 0.601 | combination Emax [5]: 0.671 | combination Emax [6]: 0.487 | combination Emax [7]: 0.513 | combination Emax [8]: 0.51 | combination Emax [9]: 0.755 | combination Emax [10]: 0.457 | combination Emax [11]: 0.801 | combination Emax [12]: 0.994 | combination Emax [13]: 0.975 | combination Emax [14]: 0.496 | Bliss excess [15]: -0.0582 | Bliss excess [16]: 0.0621
